US8263610B2, “Substituted imidazolyl-5,6-dihydrobenzo[N]isoquinoline compounds” (ArQule, Inc., priority 2008, dated 2012)
Where a name gives a salt, the structure may show the parent alone.

Structure (SMILES) | melting point
COc1ccc(CN2CCc3c(cnc4c3cnn4Cc3ccc(OC)cc3)C2)cc1 | 105 to 107 °C
COc1ccc(Cn2ncc3c4c(cnc32)CNCC4)cc1 | 96 to 102 °C
O=C(O)C(F)(F)F.c1nc2[nH]ncc2c2c1CNCC2 | 224 to 227 °C
Cl.c1ccc(-c2n[nH]c3ncc4c(c23)CCNC4)cc1 | 265 °C (dec.)
Clc1ccccc1C1Cc2cnc3[nH]nc(-c4cnn(C5CCNCC5)c4)c3c2-c2ccccc21 (centres unmarked) (as salt: TFA) [Example 19, 7-(2-chlorophenyl)-1-(1-piperidin-4-yl-1H-pyrazol-4-yl)-6,7-dihydro-3H-benzo[f]pyrazolo[3,4-c]isoquinoline] | > 225 °C
NC(=O)c1cccc(-c2n[nH]c3ncc4c(c23)CCNC4)c1 (as salt: trifluoroacetate) | 240 °C (dec.)
CC(=O)Nc1cccc(-c2n[nH]c3ncc4c(c23)CCNC4)c1 (as salt: trifluoroacetate) [Example 456, 1-(3-acetamidophenyl)-6,7,8,9-tetrahydro-3H-pyrazolo[3,4-c][2,7]naphthyridin-7-ium 2,2,2-trifluoroacetate] | 245 °C (dec.)
COc1ccc(Cn2ncc3c4c(cnc32)CC(NC(=O)c2ccccc2)CC4)cc1 (centres unmarked) [Compound 5, N-[3-(4-methoxybenzyl)-6,7,8,9-tetrahydro-3H-pyrazolo[3,4-c]isoquinolin-7-yl]benzamide] | > 65 °C
COc1ccc(Cn2ncc3c4c(cnc32)CN(S(=O)(=O)c2ccccc2)CC4)cc1 [Compound 6, 3-(4-methoxybenzyl)-7-(phenylsulfonyl)-6,7,8,9-tetrahydro-3H-pyrazolo[3,4-c][2,7]naphthyridine] | 136 to 138 °C
Clc1ccc(C2Cc3cnc4[nH]ncc4c3-c3ccccc32)cc1Cl (centres unmarked) [Example 1, 7-(3,4-dichlorophenyl)-6,7-dihydro-3H-benzo[f]pyrazolo[3,4-c]isoquinoline] | 168 to 170 °C
Fc1ccc(C2Cc3cnc4[nH]ncc4c3-c3ccccc32)cc1F (centres unmarked) [Example 3, 7-(3,4-difluorophenyl)-6,7-dihydro-3H-benzo[f]pyrazolo[3,4-c]isoquinoline] | 195 to 196 °C
Fc1ccc(C2Cc3cnc4[nH]ncc4c3-c3ccccc32)cc1 (centres unmarked) [Example 6, 7-(4-fluorophenyl)-6,7-dihydro-3H-benzo[f]pyrazolo[3,4-c]isoquinoline] | 167 to 169 °C
Cc1cc(C)c2c(c1)-c1c(cnc3[nH]ncc13)CC2 [Example 7, 8,10-dimethyl-6,7-dihydro-3H-benzo[f]pyrazolo[3,4-c]isoquinoline] | 152 to 155 °C
COc1ccc2c(c1)-c1c(cnc3[nH]ncc13)CC2 [Example 9, 10-methoxy-6,7-dihydro-3H-benzo[f]pyrazolo[3,4-c]isoquinoline] | 95 to 97 °C
c1cnc2c(c1)CCc1cnc3[nH]ncc3c1-2 [Example 10, 6,9-dihydro-5H-pyrazolo[3,4-k][1,8]phenanthroline] | 263 to 265 °C
O=c1ccc2c([nH]1)CCc1cnc3[nH]ncc3c1-2 [Example 15, 6,7-dihydro-3H-pyrazolo[4,3-a][3,7]phenanthrolin-9(8H)-one] | 290 to 296 °C
Brc1n[nH]c2ncc3c(c12)-c1ccccc1C(c1ccccc1)C3 (centres unmarked) [Example 16, 1-bromo-7-phenyl-6,7-dihydro-3H-benzo[f]pyrazolo[3,4-c]isoquinoline] | 176 to 178 °C
CC(C)(C)OC(=O)N1CCC(n2cc(-c3n[nH]c4ncc5c(c34)-c3ccccc3C(c3ccccc3Cl)C5)cn2)CC1 (centres unmarked) [Example 18, tert-butyl 4-(4-(7-(2-chlorophenyl)-6,7-dihydro-3H-benzo[f]pyrazolo[3,4-c]isoquinolin-1-yl)-1H-pyrazol-1-yl)piperidine-1-carboxylate] | 139 to 141 °C
CC(C)(C)OC(=O)N1CCc2c(cnc3[nH]nc(Br)c23)C1 [Example 77, tert-butyl 1-bromo-8,9-dihydro-3H-pyrazolo[3,4-c][2,7]naphthyridine-7(6H)-carboxylate] | > 65 °C
CC(C)(C)OC(=O)N1CCN(C(C(=O)N2CCc3c(cnc4[nH]nc(Br)c34)C2)c2ccccc2)CC1 (centres unmarked) [Example 91, tert-butyl 4-(2-(1-bromo-8,9-dihydro-3H-pyrazolo[3,4-c][2,7]naphthyridin-7(6H)-yl)-2-oxo-1-phenylethyl)piperazine-1-carboxylate] | 159 to 161 °C

The next lines start with the values.

melting point | Structure (SMILES)
270 to 271 °C | O=S(=O)(c1ccccc1)N1CCc2c(cnc3[nH]ncc23)C1
200 to 202 °C | S=C(Nc1ccccc1)N1CCc2c(cnc3[nH]ncc23)C1
> 216 °C | O=C(Nc1ccccc1)NC1CCc2c(cnc3[nH]ncc23)C1 (centres unmarked)
> 300 °C | O=C(Nc1ccccc1)C1CCc2c(cnc3[nH]ncc23)C1 (centres unmarked)
> 115 °C | O=C(C(NCCO)c1ccccc1)N1CCc2c(cnc3[nH]nc(Br)c23)C1.O=C(O)C(F)(F)F (centres unmarked)
> 245 °C | Cl.O=C(C(c1ccccc1)N1CCNCC1)N1CCc2c(cnc3[nH]nc(Br)c23)C1 (centres unmarked)
> 100 °C | N[C@H](C(=O)N1CCc2c(cnc3[nH]ncc23)C1)c1ccccc1.O=C(O)C(F)(F)F
> 232 °C | c1ccc(CNC2CCc3c(cnc4[nH]ncc34)C2)cc1 (centres unmarked) (as salt: TFA)
> 164 °C | O=C(C(NCCc1c[nH]c2ccccc12)c1ccccc1)N1CCc2c(cnc3[nH]ncc23)C1 (centres unmarked) (as salt: TFA) [Example 84, N-(2-(1H-indol-3-yl)ethyl)-2-(8,9-dihydro-3H-pyrazolo[3,4-c][2,7]naphthyridin-7(6H)-yl)-2-oxo-1-phenylethanaminium 2,2,2-trifluoroacetate]
184 to 196 °C | CN(C)CCNC(=O)c1cccc(NC(=O)N2CCc3c(cnc4[nH]ncc34)C2)c1 (as salt: TFA) [Example 95, N-(3-(2-(dimethylamino)ethylcarbamoyl)phenyl)-8,9-dihydro-3H-pyrazolo[3,4-c][2,7]naphthyridine-7(6H)-carboxamide]
> 135 °C | O=C(NCc1ccccc1)c1cccc(NC(=O)N2CCc3c(cnc4[nH]ncc34)C2)c1 (as salt: TFA) [Example 96, N-[3-(benzylcarbamoyl)phenyl]-3,6,8,9-tetrahydro-7H-pyrazolo[3,4-c][2,7]naphthyridine-7-carboxamide]
300 to 302 °C | O=C(c1ccccc1)c1c[nH]c2ncnc(N3CCc4c(cnc5[nH]ncc45)C3)c12 (as salt: TFA) [Example 435, (4-(8,9-dihydro-3H-pyrazolo[3,4-c][2,7]naphthyridin-7(6H)-yl)-7H-pyrrolo[2,3-d]pyrimidin-5-yl)(phenyl)methanone]
230 to 231 °C | O=C(Nc1ccccc1)N1CCc2c(cnc3[nH]nc(C4=CCNCC4)c23)C1 (as salt: chloride)
143 to 145 °C | c1ccc(C2Cc3cnc4[nH]ncc4c3-c3ccccc32)cc1 (centres unmarked) [Example 2, 7-phenyl-6,7-dihydro-3H-benzo[f]pyrazolo[3,4-c]isoquinoline]
88 to 91 °C | Clc1ccccc1C1Cc2cnc3[nH]ncc3c2-c2ccccc21 (centres unmarked) [Example 5, 7-(2-dichlorophenyl)-6,7-dihydro-3H-benzo[f]pyrazolo[3,4-c]isoquinoline]
85 to 89 °C | COc1cccc2c1CCc1cnc3[nH]ncc3c1-2 [Example 8, 8-methoxy-6,7-dihydro-3H-benzo[f]pyrazolo[3,4-c]isoquinoline]
214 to 217 °C | O=[N+]([O-])c1ccc2c(c1)-c1c(cnc3[nH]ncc13)CC2 [Example 14, 10-nitro-6,7-dihydro-3H-benzo[f]pyrazolo[3,4-c]isoquino line]
215 to 217 °C | c1ccc2c(c1)NCCc1cnc3[nH]ncc3c1-2 [Example 29, 3,6,7,8-tetrahydropyrazolo[4′,3′:5,6]pyrido[3,4-d][1]benzazepine]
> 70 °C | CC(C)(C)OC(=O)N1CCc2c(cnc3[nH]ncc23)C1 [Example 76, tert-butyl 8,9-dihydro-3H-pyrazolo[3,4-c][2,7]naphthyridine-7(6H)-carboxylate]
237 to 241 °C | O=C(O)c1cccc(NC(=O)N2CCc3c(cnc4[nH]ncc34)C2)c1 [Example 93b, 3-(6,7,8,9-tetrahydro-3H-pyrazolo[3,4-c][2,7]naphthyridine-7-carboxamido)benzoic acid]
> 215 °C | O=C(Nc1cccc(C(=O)N2CCC(n3c(=O)[nH]c4ccccc43)CC2)c1)N1CCc2c(cnc3[nH]ncc23)C1 [Example 94, N-(3-(4-(2-oxo-2,3-dihydro-1H-benzo[d]imidazol-1-yl)piperidine-1-carbonyl)phenyl)-8,9-dihydro-3H-pyrazolo[3,4-c][2,7]naphthyridine-7(6H)-carboxamide]
> 136 °C | COc1ccc(Cn2ncc3c4c(cnc32)CN(C(=O)Nc2cccc(C(=O)O)c2)CC4)cc1 [Example 153, 3-(3-(4-methoxybenzyl)-6,7,8,9-tetrahydro-3H-pyrazolo[3,4-c][2,7]naphthyridine-7-carboxamido)benzoic acid]
228 to 229 °C | O=S(=O)(NC1CCc2c(cnc3[nH]ncc23)C1)c1ccccc1 (centres unmarked) [Example 158, N-(6,7,8,9-tetrahydro-3H-pyrazolo[3,4-c]isoquinolin-7-yl)benzenesulfonamide]
184 to 186 °C | O=C(Nc1ccccc1)N1CCc2c(cnc3[nH]ncc23)C1 [Example 318, N-phenyl-8,9-dihydro-3H-pyrazolo[3,4-c][2,7]naphthyridine-7(6H)-carboxamide]
> 140 °C | O=C(Nc1ccccc1)N1CCc2cnc3[nH]ncc3c2-c2ccccc21 [Example 319, N-phenyl-6,7-dihydropyrazolo[4′,3′:5,6]pyrido[3,4-d][1]benzazepine-8(3H)-carboxamide]
> 155 °C | Cc1nc(-c2cccc(NC(=O)N3CCc4c(cnc5[nH]ncc45)C3)c2)cs1 [Example 401, N-(3-(2-methylthiazol-4-yl)phenyl)-8,9-dihydro-3H-pyrazolo[3,4-c][2,7]naphthyridine-7(6H)-carboxamide]
258 to 261 °C | Cc1nc(-c2cccc(NC(=O)N3CCc4c(cnc5[nH]nc(Br)c45)C3)c2)cs1 [Example 402, 1-bromo-N-(3-(2-methylthiazol-4-yl)phenyl)-8,9-dihydro-3H-pyrazolo[3,4-c][2,7]naphthyridine-7(6H)-carboxamide]
